Assay type in all cases: cell-based, human
One test relates to NCI-H441 cells. The test can be described thus: 3D cell proliferation assay (CellTiter Glo-3D), NCI-H441. The conditions noted are these: medium with 2% FBS, read-out: H441 AP IC50. The procedure, abridged: (§1)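 Luminescent CellTiter-Glo 3D readout after 5-day compound exposure (3.16-fold series, 0.1% DMSO, 2% FBS medium) at 37°C on 800 cells/well plated the day before; IC50 from four-parameter curve of inhibition relative to DMSO and blank wells.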

Test [1] concerns p-ERK in NCI-H441 cells (KRAS G12V mutation). The test can be described thus: Cell p-ERK assay (HTRF) in NCI-H441 cells. The conditions noted are these: NCI-H441 cells, 3 h compound incubation, HTRF p-ERK T202/Y204, read-out: H441 p-ERK IC50. The procedure, abridged:
(§2)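 AsPC-1 (10000/well) or NCI-H441 (20000/well) cells were seeded overnight, then treated 3 h at 37° C. with 3.16-fold compound dilutions (0.1% DMSO final). Lysates were probed 4 h for phospho-ERK T202/Y204 by HTRF; inhibition versus DMSO and blank wells gave IC50 from four-parameter fits.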

Test [2] relates to AsPC-1 cells (KRAS G12D mutation). The test can be described thus: 3D cell proliferation assay (CellTiter Glo-3D), AsPC-1. The conditions noted are these: medium with 2% FBS, read-out: AsPC-1 AP IC50. The method in brief:
as §1

For test [3], the system named is p-ERK in AsPC-1 cells (KRAS G12D mutation). Description: Cell p-ERK assay (HTRF) in AsPC-1 cells. The conditions noted are these: AsPC-1 cells, 3 h compound incubation, HTRF p-ERK T202/Y204, read-out: AsPC-1 p-ERK IC50. The method in brief: as §2
The mark [4] stands for this setting: Homo sapiens, NCI-H441, 3D cell proliferation (CellTiter Glo-3D).
Setting [5] is: Homo sapiens, ASPC1, 3D cell proliferation (CellTiter Glo-3D).
[6] abbreviates: 3D cell proliferation (CellTiter Glo-3D).

Read-outs that look alike come from different tables or passages of the source.

The record followed here is US20260234165A1, “MACROCYCLIC COMPOUNDS, PREPARATION METHOD THEREFOR, AND USE THEREOF” (GENFLEET THERAPEUTICS (SHANGHAI) INC., priority 2004, published 2026).

In the case of `CCn1c(-c2cc(N3CCN(C)CC3)cnc2[C@H](C)OC)c2c3cc(ccc31)-c1csc(n1)C[C@H](Nc1nnc3cc(C)ccn13)C(=O)N1CCC[C@H](N1)C(=O)OCC(C)(C)C2` (atropisomer, axis not shown; (Ra)) [Compound Z653, (6^3S,4S,Z)-1^1-ethyl-(Ra)-1^2-(2-((S)-1-methoxyethyl)-5-(4-methylpiperazin-1-yl)pyridin-3-yl)-10,10-dimethyl-4-((7-methyl-[1,2,4]triazolo[4,3-a]pyridin-3-yl)amino)-6^1,6^2,6^3,6^4,6^5,6^6-hexahydro-1^1H-8-oxa-2(4,2)-thiazola-1(5,3)-indola-6(1,3)-pyridazinacycloundecaphane-5,7-dione], the IC50 came out at 4.06 nM with NCI-H441 cells (setting [4]); 4.55 nM in test [1] (Homo sapiens, NCI-H441, 3 h); 21.1 nM in test [2] (setting [5]); 13.4 nM in test [3] (Homo sapiens, ASPC1, 3 h).
For `CCn1c(-c2cc(N3CCN4CCOC[C@@H]4C3)cnc2[C@H](C)OC)c2c3cc(ccc31)-c1csc(n1)C[C@H](NC(=O)[C@H]1[C@H](C)[C@@H]1C)C(=O)N1CCC[C@H](N1)C(=O)OCC(C)(C)C2` (atropisomer, axis not shown; (Ra)) [Compound Z73, (1r,2R,3S)—N-((6^3S,4S,Z)-1^1-ethyl-(Ra)-1^2-(5-((S)-hexahydropyrazino[2,1-c][1,4]oxazin-8(1H)-yl)-2-((S)-1-(methoxy-d3)ethyl)pyridin-3-yl)-10,10-dimethyl-5,7-dioxo-6^1,6^2,6^3,6^4,6^5,6^6-hexahydro-1^1H-8-oxa-2(4,2)-thiazola-1(5,3)-indola-6(1,3)-pyridazinacycloundecaphane-4-yl)-2,3-dimethylcyclopropane-1-carboxamide], the IC50 in the test on NCI-H441 cells (setting [6]) is 0.35 nM; in test [1] it was 0.24 nM; in test [2] (setting [6]) it was 0.65 nM; in test [3], 0.21 nM.
For the compound `CCn1c(-c2cc(OCCN3CCOC4(CC4)C3)cnc2[C@H](C)OC)c2c3cc(ccc31)-c1csc(n1)C[C@H](NC(=O)[C@H]1[C@H](C)[C@@H]1C)C(=O)N1CCC[C@H](N1)C(=O)OCC(C)(C)C2` (atropisomer, axis not shown; (Sa)) [Compound Z551, (1r,2R,3S)—N-((6^3R,4R,Z)—(Sa)-1^2-(5-(2-(4-oxa-7-azaspiro[2,5]octan-7-yl)ethoxy)-2-((S)-1-methoxyethyl)-3-ylpyridin)-1^1-ethyl-10,10-dimethyl-5,7-dioxo-6^1,6^2,6^3,6^4,6^5,6^6-hexahydro-1^1H-8-oxa-2(4,2)-thiazola-1(5,3)-indola-6(1,3)-pyridazinacycloundecaphane-4-yl)-2,3-dimethylcyclopropane-1-carboxamide], the IC50 in the test with NCI-H441 cells (setting [4]) was found to be 0.37 nM; in test [1] (Homo sapiens, NCI-H441, 3 h), 0.27 nM; in test [2] (setting [5]), 0.32 nM; in test [3] (Homo sapiens, ASPC1, 3 h) it was 0.29 nM.
For `CCn1c(-c2cc(OCCN3CCOC4(CC4)C3)cnc2[C@H](C)OC)c2c3cc(ccc31)-c1csc(n1)C[C@H](NC(=O)[C@H]1[C@H](C)[C@@H]1C)C(=O)N1CCC[C@H](N1)C(=O)OCC1(CC1)C2` (atropisomer, axis not shown; (Ra)) [Compound Z375] the same measures were 3.7 nM, 0.91 nM, 6.9 nM and 3.92 nM.
For `CO[C@@H](C)c1ncc(C#CCN2CCS(=O)(=O)CC2)cc1-c1c2c3cc(ccc3n1CCO)-c1csc(n1)C[C@H](NC(=O)[C@H]1[C@H](C)[C@@H]1C)C(=O)N1CCC[C@H](N1)C(=O)OCC(C)(C)C2` (atropisomer, axis not shown; (Ra)) [Compound Z952, (1r,2R,3S)—N-((6^3S,4S,Z)—(Ra)-1^2-(5-(3-(1,1-dioxidothiomorpholino)prop-1-yn-1-yl)-2-((S)-1-methoxyethyl)pyridin-3-yl)-1^1-(2-hydroxyethyl)-10,10-dimethyl-5,7-dioxo-6^1,6^2,6^3,6^4,6^5,6^6-hexahydro-1^1H-8-oxa-2(4,2)-thiazola-1(5,3)-indola-6(1,3)-pyridazinacycloundecaphane-4-yl)-2,3-dimethylcyclopropane-1-carboxamide] the same measures were 0.34 nM, 0.54 nM, 0.27 nM and 0.53 nM.
